Assay results from patent US20070128217A1 (priority 2003, published 2007).

Key:
[1] = system: control sera (pooled serum of ten healthy LUMC hospital workers; commercial negative donor pooled serum from the Dutch bloodbank); format: binding, human; set-up: Binding of Control serum LUMC to linear peptides / Binding of Control serum Blood-bank to linear peptides / Binding of Control serum LUMC to looped peptides / Binding of Control Serum Blood-Bank to Looped peptides / Binding of Control serum LUMC to linear peptides of the protein M of SARS-CoV Urbani / Binding of Control serum Blood-bank to linear peptides of the protein M of SARS-CoV Urbani / Binding of Control serum LUMC to looped peptides of the protein M of SARS-CoV Urbani / Binding of Control Serum Blood-Bank to Looped peptides of the protein M of SARS-CoV Urbani: unit not given here
[2] = system: antibodies in sera from SARS patients (sera 1a, 1b, 2, 6, 37, 62, London, SARS-yellow, SARS-green); format: binding, human; set-up: Binding of serum 6 to linear peptides of protein X1 of SARS-CoV Urbani / Binding of serum 37 to linear peptides of protein X1 of SARS-CoV Urbani / Binding of serum 6 to looped/cyclic peptide (PEPSCAN-ELISA) / Binding of serum 37 to looped/cyclic peptide (PEPSCAN-ELISA) / Binding of serum 37 to looped/cyclic peptides of protein X1 of SARS-CoV Urbani / Binding of serum 6 to linear peptides of protein X2 / Binding of serum 37 to linear peptides of protein X2 / Binding of serum 37 to looped/cyclic peptides of protein X2 of SARS-CoV Urbani / Binding of serum 6 to linear peptides of protein M of SARS-CoV Urbani / Binding of serum 37 to linear peptides of protein M of SARS-CoV Urbani / Binding of serum 6 to looped/cyclic peptides of protein M of SARS-CoV Urbani / Binding of serum 37 to looped/cyclic peptides of protein M of SARS-CoV Urbani / Binding of serum 6 to linear peptides of protein X3 of SARS-CoV Urbani / Binding of serum 37 to linear peptides of protein X3 of SARS-CoV Urbani / Binding of serum 37 to looped/cyclic peptides of protein X3 of SARS-CoV Urbani / Binding of serum 6 to linear peptides of protein X4 of SARS-CoV Urbani / Binding of serum 37 to linear peptides of protein X4 of SARS-CoV Urbani / Binding of serum 37 to looped/cyclic peptides of protein X4 of SARS-CoV Urbani / Binding of serum 6 to linear peptides of protein X5 of SARS-CoV Urbani / Binding of serum 37 to linear peptides of protein X5 of SARS-CoV Urbani / Binding of serum 37 to looped/cyclic peptides of protein X5 of SARS-CoV Urbani / Binding of serum 6 to linear peptides of protein N of SARS-CoV Urbani / Binding of serum 37 to linear peptides of protein N of SARS-CoV Urbani / Binding of serum 6 to linear peptide (PEPSCAN-ELISA) / Binding of serum 1a to looped/cyclic peptides of protein N of SARS-CoV Urbani / Binding of serum 1b to looped/cyclic peptides of protein N of SARS-CoV Urbani / Binding of serum 2 to looped/cyclic peptides of protein N of SARS-CoV Urbani / Binding of serum 6 to looped/cyclic peptides of protein N of SARS-CoV Urbani / Binding of serum 37 to looped/cyclic peptides of protein N of SARS-CoV Urbani / Binding of serum 62 to looped/cyclic peptides of protein N of SARS-CoV Urbani / Binding of serum London to looped/cyclic peptides of protein N of SARS-CoV Urbani / Binding of serum SARS-green to looped/cyclic peptides of protein N of SARS-CoV Urbani: unit not given here
[3] = system: rabbit serum obtained by immunizing a rabbit with the SARS-CoV strain Frankfurt 1; format: binding; set-up: Binding of a rabbit serum to linear peptides / Binding of a rabbit serum to looped peptides / Rabbit serum linear peptides / Rabbit serum looped peptides / Binding of a rabbit serum to linear peptides of protein N of SARS-CoV Urbani (Rabbit serum linear peptides) / Binding of a rabbit serum to looped/cyclic peptides of protein N of SARS-CoV Urbani (Rabbit serum looped peptides): unit not given here
[4] = system: recombinant human anti-SARS-CoV antibody 03-018; format: binding; set-up: Binding of antibody 03-018 to linear peptides of the N protein of SARS-CoV Urbani / Binding of antibody 03-018 to looped/cyclic peptides of the N protein of SARS-CoV Urbani: unit not given here

Row | Sequence | Binding of serum 1a to linear peptides of protein N of SARS-CoV Urbani [2] | Binding of serum 1a to looped/cyclic peptides of protein N of SARS-CoV Urbani [2] | Binding of serum 1b to linear peptides of protein N of SARS-CoV Urbani [2] | Binding of serum 1b to looped/cyclic peptides of protein N of SARS-CoV Urbani [2] | Binding of serum 2 to linear peptides of protein N of SARS-CoV Urbani [2] | Binding of serum 2 to looped/cyclic peptides of protein N of SARS-CoV Urbani [2] | Binding of serum 6 to linear peptides of protein N of SARS-CoV Urbani [2] | Binding of serum 6 to looped/cyclic peptides of protein N of SARS-CoV Urbani [2] | Binding of serum 37 to linear peptides of protein N of SARS-CoV Urbani [2] | Binding of serum 37 to looped/cyclic peptides of protein N of SARS-CoV Urbani [2] | Binding of serum 62 to linear peptides of protein N of SARS-CoV Urbani [2] | Binding of serum 62 to looped/cyclic peptides of protein N of SARS-CoV Urbani [2] | Binding of serum London to linear peptides of protein N of SARS-CoV Urbani [2] | Binding of serum London to looped/cyclic peptides of protein N of SARS-CoV Urbani [2] | Binding of serum SARS-green to linear peptides of protein N of SARS-CoV Urbani [2] | Binding of serum SARS-green to looped/cyclic peptides of protein N of SARS-CoV Urbani [2] | Binding of serum SARS-yellow to linear peptides of protein N of SARS-CoV Urbani [2] | Binding of serum SARS-yellow to looped/cyclic peptides of protein N of SARS-CoV Urbani [2] | Binding of a rabbit serum to linear peptides of protein N of SARS-CoV Urbani (Rabbit serum linear peptides) [3] | Binding of a rabbit serum to looped/cyclic peptides of protein N of SARS-CoV Urbani (Rabbit serum looped peptides) [3] | also measured
1 | TDEAQPLPQRQKKQP | 0.2 | 0.2 | 0.2 | 0.0 | 0.3 | 0.2 | 0.2 | 0.1 | 0.7 | 0.1 | 0.7 | 0.0 | 1.2 | 0.1 | 0.7 | 0.0 | 1.0 | 0.1 | 0.1 | 0.0 | Control Serum Blood-Bank Looped peptides [1]: 0.5; Control serum Blood-bank linear peptides [1]: 0.7; Control serum LUMC linear peptides [1]: 0.6; Control serum LUMC looped peptides [1]: 0.2; Binding of antibody 03-018 to linear peptides of the N protein of SARS-CoV Urbani [4]: 0.1; Binding of antibody 03-018 to looped/cyclic peptides of the N protein of SARS-CoV Urbani [4]: 0.1
2 | TDSTDNNQNGGRNGA | 0.3 | 0.4 | 0.2 | 0.3 | 0.2 | 0.6 | 0.3 | 0.3 | 1.0 | 0.7 | 0.8 | 0.3 | 0.6 | 0.6 | 1.0 | 0.8 | 0.7 | 0.7 | 0.1 | 0.2 | Binding of Control Serum Blood-Bank to Looped peptides [1]: 0.7; Binding of Control serum Blood-bank to linear peptides [1]: 1.1; Binding of Control serum LUMC to linear peptides [1]: 0.8; Binding of Control serum LUMC to looped peptides [1]: 0.8; Binding of antibody 03-018 to linear peptides of the N protein of SARS-CoV Urbani [4]: 0.2; Binding of antibody 03-018 to looped/cyclic peptides of the N protein of SARS-CoV Urbani [4]: 0.2
3 | TEGALNTPKDHIGTR | 0.2 | 0.3 | 0.1 | 0.2 | 0.2 | 0.5 | 0.2 | 0.4 | 0.7 | 0.5 | 0.7 | 0.6 | 0.5 | 0.4 | 0.6 | 0.6 | 0.6 | 0.4 | 0.2 | 0.0 | Binding of Control Serum Blood-Bank to Looped peptides [1]: 0.7; Binding of Control serum Blood-bank to linear peptides [1]: 1.0; Binding of Control serum LUMC to linear peptides [1]: 0.9; Binding of Control serum LUMC to looped peptides [1]: 0.7; Binding of antibody 03-018 to linear peptides of the N protein of SARS-CoV Urbani [4]: 0.2; Binding of antibody 03-018 to looped/cyclic peptides of the N protein of SARS-CoV Urbani [4]: 0.3
